Assay results published in patent US20040039053A1, “Use of(-) (3-halomethylphenoxy) (4-halophenyl) acetic acid derivatives for treatment of insulin resistance, type 2 diabetes, hyperlipidemia and hyperuricemia” (priority 2000, published 2004).
Several values for one entry are separate records, joined by “and”; a condition that tells them apart may be missing. Identical values can stand only once. Entries after “also recorded” stand apart in the source; their conditions may differ.

Columns and labels:
[1] = target: T1, CYP2A6 (Homo sapiens, UniProt P11509); assay: Cytochrome P450 isoform inhibition in human hepatic microsomes, coumarin (Example 18); conditions: positive control 250 μM; VC 32.0 ± 1.4
T1 sequence (P11509 1-494): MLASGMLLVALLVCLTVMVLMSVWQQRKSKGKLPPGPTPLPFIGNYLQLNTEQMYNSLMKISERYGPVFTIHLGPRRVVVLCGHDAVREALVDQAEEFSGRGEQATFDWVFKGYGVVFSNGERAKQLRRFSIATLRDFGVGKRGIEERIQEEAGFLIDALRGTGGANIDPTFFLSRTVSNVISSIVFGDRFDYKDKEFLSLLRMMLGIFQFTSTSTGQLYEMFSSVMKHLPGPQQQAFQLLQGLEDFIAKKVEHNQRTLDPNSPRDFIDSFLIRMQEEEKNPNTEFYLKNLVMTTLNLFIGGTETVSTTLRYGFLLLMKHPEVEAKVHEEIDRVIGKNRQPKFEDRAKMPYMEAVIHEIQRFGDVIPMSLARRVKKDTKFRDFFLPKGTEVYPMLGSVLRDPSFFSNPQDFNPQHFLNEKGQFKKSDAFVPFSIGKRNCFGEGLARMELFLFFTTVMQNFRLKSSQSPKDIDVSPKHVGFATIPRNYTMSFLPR

[2] = system: ZDF rats; assay: Plasma glucose in ZDF rats, (−) versus (+) halofenate (Example 13); type: in vivo; conditions: 50 mg/kg oral once a day for 3 days
Method: Male 8-9 week old ZDF rats were purchased from Genetic Models, Inc. (Indianapolis, Ind.). […] Rats that had 4-hour fasting plasma glucose levels between 200 and 500 mg/dL were used. […] The gavage volume was 5 ml/kg. Blood samples were taken at 5 hours post dose on day 2 and 3.

[3] = system: Zucker fatty rats; assay: Oral glucose challenge in Zucker fatty rats (Example 10); type: in vivo; conditions: racemate 100 mg/kg, enantiomers 50 and 100 mg/kg; for incremental glucose area under the curve (AUC) vs control, in words: single oral dose
Method: (§1) Prior to treatment, rats were assigned to 6 groups based on body weight. Each treatment group consisted of 8 rats. […] The gavage volume was 10 ml/kg. All rats received an oral glucose challenge (1.9 g/kg) 5.5 hours after the treatment and 4 hours after withdrawal of the food. Blood samples were taken at 0, 15, 30, 60, 90, 120, and 180 minutes following the glucose challenge for plasma glucose measurement. […] On day 5, rats received the intravenous insulin (0.75 U/kg) 5.5 hours after the last dose and 4 hours after withdrawal of the food. Blood samples were taken at 3, 6, 9, 12, 15 and 18 minutes following the insulin injection for plasma glucose measurement.

[4] = system: oxonic acid induced hyperuricemic rats; assay: Plasma uric acid in oxonic acid induced hyperuricemic rats (Example 17); type: in vivo; conditions: oxonic acid hyperuricemic SD rats, oral 50 mg/kg for 3 days, 100 mg/kg on day 4, 6 hours post gavage
Description: Male SD rats, weight 275-300 g were purchased from Charles River. […] To establish a hyperuricemic state, animals were put on a diet containing 2.5% (w/w) of oxonic acid (Sigma Chemical Co, St. Louis, Mo., USA) throughout the experiment. Oxonic acid elevates plasma uric acid by inhibiting uricase. Rats were screened for plasma uric acid levels 3 days after they were placed on the diet, and those that had extreme plasma uric acid levels were excluded. Rats were assigned to one of three groups and the mean uric acid levels were equivalent in each group. […] Oxonic acid was delivered in a liquid formulation containing 0.9% (w/v) methylcellulose. The gavage and injection volumes were 5 ml/kg. Blood samples were taken at 6 hours post oral gavage on day 4. Plasma uric acid levels were determined colorimetrically using the Infinity Uric Acid Reagent (Sigma Chemical Co, St. Louis, Mo., USA).

[5] = system: Zucker Diabetic Fatty rats; assay: Lipid lowering activity in Zucker Diabetic Fatty rats (Example 11); type: in vivo; conditions: ZDF rats; for plasma cholesterol course during treatment, in words: 13 days, racemate 50 mg/kg/day; for plasma cholesterol course during treatment, in words / difference in plasma cholesterol between control and treated groups, in words: enantiomers 25 mg/kg/day; for difference in plasma cholesterol between control and treated groups, in words: experiment I, 7 and 13 days
Method: Male Zucker diabetic fatty (ZDF) rats were obtained from GMI Laboratories (Indianapolis, Ind.) at 9 weeks of age. Vehicle or enantiomers of halofenate administered by oral gavage on a daily basis starting at 74 days of age. Initial blood samples were obtained for analysis one day before treatment and at the indicated times in the treatment protocol. Blood was analyzed for plasma triglyceride and cholesterol by standard techniques.

[6] = system: Zucker fatty rats; assay: Short insulin tolerance test in Zucker fatty rats (Example 10); type: in vivo; conditions: 50 mg/kg/day for 5 days
Method: as §1

[7] = system: diabetic ob/ob mice; assay: Glucose and insulin lowering on daily oral administration for 5 days in ob/ob mice (Example 9)
Method: Animals were housed (4-5 mice/cage) under standard laboratory conditions at 22° C. and 50% relative humidity, and were maintained on a diet of Purina rodent chow and water ad libitum. Prior to treatment, blood was collected from the tail vein of each animal. Mice that had non-fasting plasma glucose levels between 300 and 520 mg/dL were used. Each treatment group consisted of 10 mice that were distributed so that the mean glucose levels were equivalent in each group as the start of the study. […] The gavage volume was 10 ml/kg. Blood samples were taken at 3, 6, 27, 30 and 120 hour after the first dose and analyzed for plasma glucose and insulin. The animals were fasted overnight (14 hours) before the 120 hours sampling. Plasma glucose concentrations were determined calorimetrically using glucose oxidase method (Sigma Chemical Co, St. Louis, Mo., USA). Plasma insulin concentrations were determined by using the Rat Insulin RIA Kit from Linco Research Inc. (St. Charles, Mo., USA). Significance difference between groups (comparing drug-treated to vehicle-treated) was evaluated using Student unpaired t-test.

[8] = target: T2, cytochrome P450 2C9 (CYP2C9) (Homo sapiens, UniProt P11712); assay: biochemical
T2 sequence (P11712 whole entry): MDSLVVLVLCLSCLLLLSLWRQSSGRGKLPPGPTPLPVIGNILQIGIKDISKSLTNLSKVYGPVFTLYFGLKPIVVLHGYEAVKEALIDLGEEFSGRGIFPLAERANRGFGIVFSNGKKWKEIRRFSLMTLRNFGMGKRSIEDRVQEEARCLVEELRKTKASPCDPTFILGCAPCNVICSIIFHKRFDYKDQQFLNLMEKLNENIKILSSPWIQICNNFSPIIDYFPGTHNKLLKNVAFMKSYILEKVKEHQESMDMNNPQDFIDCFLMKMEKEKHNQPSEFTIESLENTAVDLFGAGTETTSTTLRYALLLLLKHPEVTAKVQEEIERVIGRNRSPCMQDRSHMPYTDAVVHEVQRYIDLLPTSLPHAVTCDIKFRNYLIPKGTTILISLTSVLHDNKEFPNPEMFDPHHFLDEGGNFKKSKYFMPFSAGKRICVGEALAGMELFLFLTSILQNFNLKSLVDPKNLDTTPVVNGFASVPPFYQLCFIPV
Method: (§2) Tolbutamide hydroxylation activity (100 μM C-tolbutamide; 1 mM NADPH) was assayed in pooled human liver microsomes (0.6 mg protein/ml)) for 60 minutes at 37° C. both with and without test compounds.

[9] = target: T2, cytochrome P450 2C9 (CYP2C9); assay: Inhibition of CYP2C9 tolbutamide hydroxylation activity in pooled human liver microsomes (Example 7)
Method: as §2

[10] = Pharmacokinetic study in SD rats, chiral HPLC of plasma halofenic acids (Example 14); type: in vivo; conditions: single oral dose of (−) halofenate 50 mg/kg
Method: Male 225-250 g SD rats were purchased from Charles River. […] A catheter was placed in the left carotid artery under sodium pentobarbital (50 mg/kg i.p.) and animals were allowed to recover for 2 days before treatment. […] The gavage volume was 5 ml/kg. Blood samples were collected at 1, 2, 4, 6, 8, 12, 24, 48, 72, 96 and 120 hours post dose. The plasma samples were analyzed for each enantiomeric acid ((−) halofenic acid and (+) halofenic acid) by a chiral specific HPLC assay, since the esters are prodrugs, which are designed to convert to their respective enantiomeric acids in vivo.

[11] = system: diabetic ob/ob mice; assay: Time course of glucose-lowering after a single oral dose in ob/ob mice (Example 8); type: in vivo; conditions: single oral dose 250 mg/kg; for onset and duration of glucose-lowering action, in words: 250 mg/kg
[12] = system: C57BL/6J db/db mice; assay: Prevention of diabetes and alleviation of hypertriglyceridemia in db/db mice (Example 15); type: in vivo; conditions: 150 mg/kg/day in chow, 9 weeks; for plasma triglyceride levels with age, in words: 150 mg/kg/day
Method: Blood samples were taken at 8-10 AM once a week for 9 weeks under non-fasting condition. Food intake and body weight were measured every 1-3 days. Plasma glucose and triglyceride concentrations were determined calorimetrically using kits from Sigma Chemical Co (No. 315 and No. 339, St. Louis, Mo., USA). Plasma insulin levels were measured using RIA assay kit purchased from Linco Research (St. Charles, Mo.).

[13] = 250 mg/kg/day oral, listed as (+) enantiomer, 250 mg/kg/day
[14] = 250 mg/kg/day oral, listed as (−) enantiomer, 250 mg/kg/day

N[C@@H]1C[C@H]1c1ccccc1 (racemic) [TRAN, tranylcypromine]
Coumarin 7-HC Production [1]: 0.00 ± 0.00 pmol/mg protein/min

CC(=O)NCCOC(=O)C(Oc1cccc(C(F)(F)F)c1)c1ccc(Cl)cc1 (single isomer, unassigned; (+)) [(+) halofenate, (+) 2-Acetamidoethyl 4-Chlorophenyl-(3-trifluoromethylphenoxy)-acetate, reference compound]
plasma glucose compared to vehicle-treated animals, in words [2]: failed to reduce plasma glucose concentrations | incremental glucose area under the curve (AUC) vs control, in words [3]: not statistically significant | plasma uric acid levels vs vehicle, in words [4]: lowered plasma uric acid levels, but it was not statistically significant | lowering of plasma triglyceride vs control at 7 days, in words ([5]; 37.5 mg/kg/day (High dose)): significant lowering of plasma triglyceride | days of treatment with significant plasma cholesterol decrease vs control ([5]; 37.5 mg/kg/day (High dose), 37.5 mg/kg/day): after 7 days but not after 14 days | plasma cholesterol course during treatment, in words [5]: remained relatively constant | insulin sensitivity (slope of decline in glucose after i.v. insulin), in words [6]: small effect on insulin sensitivity that was not significantly different from the vehicle-treated control | overnight fasting plasma insulin after 5 days, in words ([7]; 125 mg/kg/day oral, listed as (+) enantiomer, 125 mg/kg/day): did not lower plasma insulin | overnight fasting plasma insulin after 5 days, in words [7, 13]: decrease in plasma insulin | time points with reduced plasma insulin vs control [7, 13]: greatest extent of reduced plasma insulin was noted at 27 and 30 hours

O=C(O)C(Oc1cccc(C(F)(F)F)c1)c1ccc(Cl)cc1 (single isomer, unassigned; (+)) [(+) halofenic acid, (+) 4-chlorophenyl-(3-trifluoromethylphenoxy)-acetic acid, reference compound]
IC50 [8]: 220 nM | inhibition of cytochrome P450 2C9, in words [9]: quite potent | plasma concentration at 0 hour ([10]; individual rats 8, 9, 11): BQL (BQL = Below Quantifiable Limit < 1.00 μg/mL) | plasma concentration at 1 hour ([10]; individual rats 8, 9, 11): 1.12 μg/mL and BQL (BQL = Below Quantifiable Limit < 1.00 μg/mL) (2×) | plasma concentration at 2 hours ([10]; individual rats 8, 9, 11): 1.27 μg/mL and BQL (BQL = Below Quantifiable Limit < 1.00 μg/mL) and 1.09 μg/mL | plasma concentration at 4 hours ([10]; individual rats 8, 9, 11): 1.67 μg/mL and BQL (BQL = Below Quantifiable Limit < 1.00 μg/mL) and 1.95 μg/mL | plasma concentration at 6 hours ([10]; individual rats 8, 9, 11): 2.96 μg/mL and BQL (BQL = Below Quantifiable Limit < 1.00 μg/mL) and 1.73 μg/mL | plasma concentration at 8 hours ([10]; individual rats 8, 9, 11): 2.58 μg/mL and BQL (BQL = Below Quantifiable Limit < 1.00 μg/mL) and 2.06 μg/mL | plasma concentration at 12 hours ([10]; individual rats 8, 9, 11): 2850 ng/mL and 2230 ng/mL and 2080 ng/mL | plasma concentration at 24 hours ([10]; individual rats 8, 9, 11): 2220 ng/mL and 1290 ng/mL and 1860 ng/mL | plasma concentration at 48 hours ([10]; individual rats 8, 9, 11): 1640 ng/mL and 1030 ng/mL and 1140 ng/mL | plasma concentration at 72 hours ([10]; individual rats 8, 9, 11): 1.25 μg/mL and BQL (BQL = Below Quantifiable Limit < 1.00 μg/mL) (2×) | plasma concentration at 96 hours ([10]; individual rats 8, 11): BQL (BQL = Below Quantifiable Limit < 1.00 μg/mL) | plasma concentration at 120 hours ([10]; rat 8): BQL (BQL = Below Quantifiable Limit < 1.00 μg/mL)

CC(=O)NCCOC(=O)C(Oc1cccc(C(F)(F)F)c1)c1ccc(Cl)cc1 (single isomer, unassigned; (-)) [(−) halofenate, (−) 2-acetamidoethyl 4-chlorophenyl-(3-trifluoromethylphenoxy)-acetate]
plasma glucose compared to vehicle-treated animals, in words [2]: significantly reduced plasma glucose concentrations | plasma glucose after oral glucose challenge, in words ([3]; single oral dose 5.5 hours before challenge): most effective in lowering the glucose; also recorded: greatest degree of glucose-lowering of all the treated animals | incremental glucose area under the curve (AUC) vs control, in words [3]: significant reductions in the glucose area; also recorded: Significant changes (p<0.05) | glucose lowering compared with the (+) enantiomer at 3 hour and 24 hour time points [11]: more effective and significantly different (p<0.05) from the (+) enantiomer | onset and duration of glucose-lowering action, in words [11]: more rapid onset and sustained longer | onset and duration of glucose-lowering action, in words ([11]; listed as (−) enantiomer): most rapid onset of action and the longest duration of action | increase of plasma glucose levels with age, in words [12]: prevented or significantly delayed | plasma insulin concentration with age, in words [12]: maintained the plasma insulin concentration | plasma triglyceride levels with age, in words [12]: alleviated hyperlipidemia | plasma triglyceride levels with age, in words ([12]; listed as (−) Halofenate): alleviated the increase of plasma triglyceride concentration | plasma uric acid levels vs vehicle, in words [4]: significantly reduced plasma uric acid levels | days of treatment with significant plasma cholesterol decrease vs control ([5]; 12.5 mg/kg/day (Low dose)): 7 days | plasma triglyceride levels, in words ([5]; 37.5 mg/kg/day (High dose)): lowest triglyceride levels of all the treatment groups | lowering of plasma triglyceride vs control at 7 days, in words ([5]; 37.5 mg/kg/day (High dose), listed as (−) enantiomer of halofenate, 37.5 mg/kg/day): greater magnitude | lowering of plasma triglyceride vs control at 7 days, in words ([5]; 37.5 mg/kg/day (High dose), listed as (−) enantiomer, 37.5 mg/kg/day): significant lowering of plasma triglyceride | plasma cholesterol course during treatment, in words [5]: plasma cholesterol declined with treatment | extent of plasma cholesterol lowering, in words ([5]; 14 days, 37.5 mg/kg/day (High dose)): greatest extent of cholesterol lowering | difference in plasma cholesterol between control and treated groups, in words [5]: significant decrease in plasma cholesterol | difference in plasma cholesterol between control and treated groups, in words ([5]; listed as (−) enantiomer): most active of the species tested | insulin sensitivity (slope of decline in glucose after i.v. insulin), in words [6]: improved significantly; also recorded: significantly more insulin sensitive | overnight fasting plasma insulin after 5 days, in words ([7]; 125 mg/kg/day oral, listed as (−) enantiomer, 125 mg/kg/day): Significantly lower plasma insulins | time points with significant plasma glucose reduction vs control ([7]; 250 mg/kg/day oral, 250 mg/kg/day): also active at 3 hours | overnight fasting plasma insulin after 5 days, in words [7, 14]: Significantly lower plasma insulins | time points with reduced plasma insulin vs control [7, 14]: greatest extent of reduced plasma insulin was noted at 27 and 30 hours
